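GI50: concentration for 50% inhibition of growth. Definition used: TGI = concentration required for complete inhibition of growth.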
Experiments:
Assay in all cases: NCI anticancer screen, dose series, 384-well format
A498 renal = test system: A498 renal
SR leukemia = test system: SR leukemia
TK-10 renal = test system: TK-10 renal
ACHN renal = test system: ACHN renal
SK-MEL-2 melanoma = test system: SK-MEL-2 melanoma
SF-268 CNS = test system: SF-268 CNS
OVCAR-5 ovarian = test system: OVCAR-5 ovarian
MALME-3M melanoma = test system: MALME-3M melanoma
DU-145 prostate = test system: DU-145 prostate
MOLT-4 leukemia = test system: MOLT-4 leukemia
SW-620 colon = test system: SW-620 colon
U251 glioblastoma = test system: U251 glioblastoma
HCT-116 colon = test system: HCT-116 colon
HT29 colon = test system: HT29 colon
IGROV1 ovarian = test system: IGROV1 ovarian
OVCAR-4 ovarian = test system: OVCAR-4 ovarian
SK-OV-3 ovarian = test system: SK-OV-3 ovarian
NCI-H322M lung = test system: NCI-H322M lung
786-0 renal = test system: 786-0 renal
UO-31 renal = test system: UO-31 renal
HL-60(TB) leukemia = test system: HL-60(TB) leukemia
SNB-19 CNS = test system: SNB-19 CNS
MDA-MB-231 breast = test system: MDA-MB-231 breast
BT-549 breast = test system: BT-549 breast
UACC-62 melanoma = test system: UACC-62 melanoma
PC-3 prostate = test system: PC-3 prostate
KM12 colon = test system: KM12 colon
OVCAR-3 ovarian = test system: OVCAR-3 ovarian
SNB-75 CNS = test system: SNB-75 CNS
SK-MEL-28 melanoma = test system: SK-MEL-28 melanoma
M14 melanoma = test system: M14 melanoma
NCI-H460 NSCLC = test system: NCI-H460 NSCLC
HS 578T breast = test system: HS 578T breast
NCI-H23 lung = test system: NCI-H23 lung
SN12C renal = test system: SN12C renal
HOP-92 NSCLC = test system: HOP-92 NSCLC
MDA-MB-468 breast = test system: MDA-MB-468 breast
A549 NSCLC = test system: A549 NSCLC
NCI-H522 lung = test system: NCI-H522 lung
CAKI-1 renal = test system: CAKI-1 renal
K-562 leukemia = test system: K-562 leukemia
SF-539 CNS = test system: SF-539 CNS
MDA-MB-435 melanoma = test system: MDA-MB-435 melanoma

C=CC(=O)Nc1cc2c(Nc3ccc(OCc4ccccn4)c(Cl)c3)ncnc2cc1OCCN1CCOCC1
GI50 (A498 renal): 744 nM
TGI (A498 renal): 2200 nM
GI50 (SR leukemia): 1520 nM
TGI (SR leukemia): 2890 nM
GI50 (TK-10 renal): 30.5 nM
TGI (TK-10 renal): 1540 nM
GI50 (ACHN renal): 98 nM
TGI (ACHN renal): 1690 nM
GI50 (SK-MEL-2 melanoma): 1300 nM
TGI (SK-MEL-2 melanoma): 2580 nM
GI50 (SF-268 CNS): 1420 nM
TGI (SF-268 CNS): 2810 nM
GI50 (OVCAR-5 ovarian): 3.49 µM
TGI (OVCAR-5 ovarian): > 100 µM
GI50 (MALME-3M melanoma): 1700 nM
TGI (MALME-3M melanoma): 3.09 µM
GI50 (DU-145 prostate): 499 nM
TGI (DU-145 prostate): 2120 nM
GI50 (MOLT-4 leukemia): 1580 nM
TGI (MOLT-4 leukemia): 2960 nM
GI50 (SW-620 colon): 1730 nM
TGI (SW-620 colon): 3.16 µM
GI50 (U251 glioblastoma): 1520 nM
TGI (U251 glioblastoma): 2930 nM
GI50 (HCT-116 colon): 1480 nM
TGI (HCT-116 colon): 2920 nM
GI50 (HT29 colon): 1590 nM
TGI (HT29 colon): 2990 nM
GI50 (IGROV1 ovarian): 27 nM
TGI (IGROV1 ovarian): 1080 nM
GI50 (OVCAR-4 ovarian): 1130 nM
TGI (OVCAR-4 ovarian): 2500 nM
GI50 (SK-OV-3 ovarian): 53.7 nM
TGI (SK-OV-3 ovarian): 2350 nM
GI50 (NCI-H322M lung): 18.3 nM
TGI (NCI-H322M lung): 1140 nM
GI50 ([…]-0 renal): 1350 nM
TGI (786-0 renal): 2670 nM
GI50 (UO-31 renal): 1080 nM
TGI (UO-31 renal): 2330 nM
GI50 (HL-60(TB) leukemia): 1530 nM
TGI (HL-60(TB) leukemia): 2900 nM
GI50 (SNB-19 CNS): 5.38 µM
TGI (SNB-19 CNS): 18.3 µM
GI50 (MDA-MB-231 breast): 1280 nM
TGI (MDA-MB-231 breast): 2910 nM
GI50 (BT-549 breast): 1160 nM
TGI (BT-549 breast): 2380 nM
GI50 (UACC-62 melanoma): 1380 nM
TGI (UACC-62 melanoma): 2680 nM
GI50 (PC-3 prostate): 1650 nM
TGI (PC-3 prostate): 3.11 µM
GI50 (KM12 colon): 1750 nM
TGI (KM12 colon): 3.23 µM
GI50 (OVCAR-3 ovarian): 282 nM
TGI (OVCAR-3 ovarian): 1880 nM
GI50 (SNB-75 CNS): 1390 nM
TGI (SNB-75 CNS): 2920 nM
GI50 (SK-MEL-28 melanoma): 1550 nM
TGI (SK-MEL-28 melanoma): 2910 nM
GI50 (M14 melanoma): 1650 nM
TGI (M14 melanoma): 3.02 µM
GI50 (NCI-H460 NSCLC): 1530 nM
TGI (NCI-H460 NSCLC): 3.16 µM
GI50 (HS 578T breast): 364 nM
TGI (HS 578T breast): 2080 nM
GI50 (NCI-H23 lung): 1690 nM
TGI (NCI-H23 lung): 4.25 µM
GI50 (SN12C renal): 1100 nM
TGI (SN12C renal): 2730 nM
GI50 (HOP-92 NSCLC): 1370 nM
TGI (HOP-92 NSCLC): 2780 nM
TGI (MDA-MB-468 breast): 40.5 nM
GI50 (A549 NSCLC): 3.11 µM
GI50 (NCI-H522 lung): 131 nM
TGI (NCI-H522 lung): 1430 nM
GI50 (CAKI-1 renal): 1180 nM
TGI (CAKI-1 renal): 2420 nM
GI50 (K-562 leukemia): 1490 nM
TGI (K-562 leukemia): 2950 nM
GI50 (SF-539 CNS): 1250 nM
TGI (SF-539 CNS): 2510 nM
GI50 (MDA-MB-435 melanoma): 1540 nM
TGI (MDA-MB-435 melanoma): 2960 nM

Source: PubChem BioAssay (NCI)
